Measurements reported in patent publication US20250188032A1, “NITROGEN-CONTAINING HETEROCYCLIC COMPOUNDS AND USES THEREOF” (BNH RESEARCH CO., LTD., priority 2022, published 2025).

How the values were obtained:
[1] = test system: 293T cells; assay: Cytotoxicity test (CCK-8 cell viability) in 293T cells; assay type: cell-based, human
Description: Human undifferentiated neuroblastoma cell line SH-SY5Y and human embryonic kidney cell line (HEK)-293T were purchased from Korean Cell Line Bank (Korea) and Takara (Japan), respectively. Cells were grown in HyClone Minimal Essential Medium (MEM) and Dulbecco's Modified Eagle Medium (DMEM), respectively, supplemented with 10% (v/v) fetal bovine serum (FBS), penicillin (100 U/mL), and streptomycin ([…]). Cells were maintained in a humidified atmosphere of 95% air and 5% CO2 at 37° C. Cells were passaged 10 times at maximum. Cells were dissociated using 0.05% trypsin-EDTA solution and the cells were seeded in new culture dishes for maintenance.
To examine the cytotoxicity of compounds described herein in human cell lines, SH-SY5Y and 293T cells were used. Approximately 8,000 cells (for 293T) and 15,000 cells (for SH-SY5Y) were plated per well of a 96-well plate (SPL Life Sciences Co., Ltd., Pocheon, Korea). After incubating at 37° C. for 24 hours in a humidified atmosphere containing 5% CO2, the culture medium was replaced by a series of concentrations of test compounds diluted in the corresponding culture medium. The time of co-incubation was 24 hours and six replicates were made for each measurement. Finally, 10 μL of CCK-8 reagent (Dojindo Laboratories, Rockville, MD) was added to each well, and after incubation at 37° C. for 3 minutes, the OD at 450 nm was measured using a multifunction microplate reader (Tecan Infinite M200 Pro). These measurements were compared to that of a control and expressed as a percentage of the control to calculate cell viability. The IC50 value was calculated using SPSS software. To do this, the absorbance of the blank wells with only growth medium is subtracted from the values or the wells with cells. The readout value of background (vehicle) was set as a 100% viability, and then the percent viability for each test solution was calculated.
Cell viability (%)=[(As-Ab)/(Ac-Ab)]×100
The data was presented as the mean value and standard error of the mean (S.E.M.). Statistical analysis was performed with the one-way ANOVA with Tukey's post hoc test (GraphPad Prism 5 software package, version 5.02, GraphPad Software Inc. USA). Significance was accepted at p<0.05.

[2] = test system: HDAC4, BDNF and GluN2B expression in C57BL/6J mice cortex; assay: Western blotting of HDAC4, BDNF and GluN2B in mouse cortical tissue after administration; assay type: in vivo
Description: For preparation of thalamocortical (TC) slices, 9- to 10-week-old male C57BL/6J rodents (mice) were anesthetized with isoflurane. Then, the brains were rapidly cooled by transcardial perfusion with ice-cold sucrose-artificial cerebrospinal fluid (aCSF). The brains were removed and placed in ice-cold sucrose aCSF. Paracoronal slices were prepared at a 50° angle to the midline on a ramp at an angle of 10°. The slices were then incubated in aCSF for 30 minutes at 35° C. to recover.
Subsequently, the slices were incubated in aCSF for 1 to 4 hours at room temperature (23 to 25° C.) before being placed in the recording chamber for experiment. Standard aCSF contains saturated with 95% O2/5% CO2.
All electrophysiological experiments were conducted at 27 to 29° C. Rodent (mice) was perfused with […] a sucrose-based aCSF solution (4° C.) using gravity. The brain of the rodent (mice) was removed and cut into 400 urn at a 50° angle (mouse at a 55° angle) to attach the cut portion to the vibratome disc to be the bottom. Brain slice was incubated in Incubate aCSF solution at 35° C. for 30 minutes or Incubate aCSF solution at RT for 1 hour. Cortical tissue from mice was prepared according to protocol above then was homogenized and lysed for protein extraction. The protein lysate was prepared from the tissue with NP40(FNN0021, Invitrogen) protein lysis buffer containing protease & […] according to the manufacturer's instruction. Protein concentrations were determined using the BCA Protein Assay Kit (Pierce Biotechnology) with bovine serum albumin as a standard. Equal amounts of proteins (20 μg per lane) were separated by electrophoresis on 8% or 12% SDS-polyacrylamide gel, followed by blotting onto PVDF membranes (GE Healthcare). To block nonspecific binding, the membranes were incubated for 1 h at room temperature in 5% non-fat dry milk in PBST (150 mM NaCl, 50 mM Tris, pH 7.4, 0.05% Tween 20). The following antibodies were incubated overnight at 4° C. in 2% blocking solution: Anti-HDAC4 (SAB4300413, Sigma-Aldrich), Anti-BDNF (ANT-010, Alomone Las), Anti-NMDAR2B (ab65783, abcam plc). Following the incubation with antibodies and several rinses in PBST, the membranes were incubated for 1 h with the mouse anti-rabbit IgG-HRP conjugated secondary anti-bodies (sc-2357, Santa Cruz). Each blot was subsequently re-probed with anti-β-actin antibody (sc-47778, Santa Cruz). Housekeeping protein β actin was detected as a normalization control. Antibodies used for methods described herein are as follows: […]

[3] = oral, 1 mg/kg, 8-week-old C57BL/6J mice, sacrificed 2 days later, vs vehicle

Structure (SMILES)	Cell viability test results (CCK) 10 uM ([1]; 10 uM, 24 hours co-incubation, 293T cell line, % of control) [%<]	Cell viability test results (CCK) 100 uM ([1]; 100 uM, 24 hours co-incubation, 293T cell line, % of control) [%<]	BDNF expression [2, 3]	GluN2B expression [2, 3]	HDAC4 expression [2, 3]	GluN2B expression ([2]; oral, 1 mg/kg, 13-month-old C57BL/6J mice, sacrificed 2 days later, vs vehicle)	Change in cell viability ([1]; 0, 0.1, 1, 10, 100 μM, 293T)	HDAC4 protein expression in mice barrel cortex ([2]; intraperitoneal administration)	HDAC4 protein expression in mice barrel cortex ([2]; oral administration)	Duration of inhibitory effect on HDAC4 protein expression ([2]; oral and intraperitoneal administration, mice barrel cortex) [days]
C[C@@H]1CC[C@H](C(=O)O)CN1C(=O)Cc1ccc(F)cc1Cl [BnH12001 enantiomer (3S,6R, 98%<), (3S,6R)-1-(2-(2-chloro-4-fluorophenyl)acetyl)-6-methylpiperidine-3-carboxylic acid]	99	95	significantly increased	significantly increased	effectively degraded	significantly increased	–	–	–	–
CC1CCC(C(=O)O)CN1C(=O)Cc1ccc(F)cc1Cl (racemic) [BnH12001, 1-(2-(2-chloro-4-fluorophenyl)acetyl)-6-methylpiperidine-3-carboxylic acid]	–	–	–	–	–	–	no significant change in cell viability	significantly suppressed	significantly suppressed	≥ 9
